Reference: patent publication US20230295212A1 (ROME Therapeutics, Inc., priority 2022, published 2023)
Structures can show the parent of a compound that is named as a salt.

What was measured:
[1] = target: T1, HERV-K reverse transcriptase (Homo sapiens, UniProt V9H0F6); assay: Homogeneous time-resolved fluorescence (HTRF) HERV-K RT assay; type: biochemical; conditions: triphosphate analogs, HERV-K enzyme 16 ng/well, 25° C. 30 minutes
T1 construct: fused on or other part: C-terminal 8xHis tag
Procedure: Exemplary triphosphate analogs were tested for ability to inhibit HERV-K reverse transcriptase using a homogeneous time-resolved fluorescence (HTRF) assay. Assay procedures and results are described below.
The HERV-K reverse transcriptase homogeneous time-resolved fluorescence (HTRF) assay was performed in a 384-well format with HERV-K reverse transcriptase (2-596)-8His protein. Baculoviruses were created using Bac-to-Bac technology (Invitrogen). pFastflac donor plasmids containing HERV-K reverse transcriptase sequence (NCBI GenBank number AAC63291.1, J. Virology (1999) Vol. 73, No. 3, pp. 2365-2375) were transformed into DH10 Bac cells following the manufacturer's instructions. Recombinant bacmids were then isolated clonally and transfected into SF9 cells with lipofectin. HERV-K reverse transcriptase was expressed in the SF9 insect cells and then purified using immobilized metal affinity chromatography (IMAC) followed by size-exclusion chromatography (SEC).
Test compound was serially diluted in DMSO and further diluted in the assay buffer (50 mM Tris-HCl, 50 mM KCl, 10 mM MgCl2, 10 mM DTT, pH 8.1) to achieve a final DMSO concentration of 1%. The serially diluted compound was mixed with 16 ng/well of HERV-K enzyme, 5 nM of pre-annealed template/biotin-primer pair (synthesized at Geneway Biotechnology), 10 nM of Fluorescein-12-dCTP fluorescent probe (PerkinElmer), and 1 mM dGTP, dATP, and DTTP (ThermoFisher). The template/biotin-primer sequences were:
After incubating at 25° C. for 30 minutes, the detection reagent 20 mM EDTA with streptavidin-terbium cryptate (Cisbio Bioassay) in the PPI buffer (Cisbio Bioassay) was added, and the mixture was incubated at 25° C. for 60 minutes. At the end of the incubation, fluorescence was read at ex/em=337/485 nm and ex/em=337/520 nm on an Envision 2104 plate reader (PerkinElmer). The fluorescence ratio at 520/485 nm was used for the calculation. […] IC50 values were calculated by fitting the compound dose inhibition curve with a 4-parameter non-linear regression equation.

human telomerase = target: T2, human telomerase (Homo sapiens, UniProt O14746); assay: Human telomerase PCR ELISA assay (MCF-7 cell lysate); type: biochemical; conditions: triphosphates, 0.2 μg MCF-7 lysate
T2 construct: endogenous in cells; host or cells: MCF-7 cell lysate
Procedure: Exemplary compounds were tested for ability to inhibit human telomerase using a PCR ELISA assay. Off-target inhibition of human telomerase can result in undesired cellular toxicity, e.g., triggering replicative senescence and/or apoptotic cell death. Assay procedures and results are described below.
The human telomerase assay was performed with telomerase in the MCF-7 cell lysate using the Telo TAGGG Telomerase PCR ELISA^Plus kit (Roche) per manufacturer's instruction. MCF-7 cells were lysed in the lysis buffer and the supernatant was used for the assay. Test compound was serially diluted in water and mixed with 0.2 μg of MCF-7 lysate in PCR tubes and incubate at room temperature for 15 minutes. The PCR reaction mixture was then added, the tubes were transferred to a thermal cycler (Analytikjena) and the telomerase elongation reaction was performed for 30 minutes followed by 30 PCR cycles with the following protocol:
Mix 2.5 μL of PCR amplification product from above to 10 μl of denature reagent to each well of a PCR plate and incubate at room temperature for 10 minutes. Add in 100 μl of hybridization buffer T and mix well. Transfer 100 μl per well of the reaction mixture to the precoated MP module, incubate at 37° C. for 2 hours. Remove the hybridization solution, wash three times with the wash buffer, add anti-DIG-HRP solution, incubate at room temperature for 30 minutes. Remove the anti-DIG-HRP solution and wash five times with the wash buffer. Add TMB substrate and incubate at room temperature for 10 minutes. Measure the absorbance at 450 nm using Envision (PerkinElmer).

T1 sequence (V9H0F6 entry or part of it): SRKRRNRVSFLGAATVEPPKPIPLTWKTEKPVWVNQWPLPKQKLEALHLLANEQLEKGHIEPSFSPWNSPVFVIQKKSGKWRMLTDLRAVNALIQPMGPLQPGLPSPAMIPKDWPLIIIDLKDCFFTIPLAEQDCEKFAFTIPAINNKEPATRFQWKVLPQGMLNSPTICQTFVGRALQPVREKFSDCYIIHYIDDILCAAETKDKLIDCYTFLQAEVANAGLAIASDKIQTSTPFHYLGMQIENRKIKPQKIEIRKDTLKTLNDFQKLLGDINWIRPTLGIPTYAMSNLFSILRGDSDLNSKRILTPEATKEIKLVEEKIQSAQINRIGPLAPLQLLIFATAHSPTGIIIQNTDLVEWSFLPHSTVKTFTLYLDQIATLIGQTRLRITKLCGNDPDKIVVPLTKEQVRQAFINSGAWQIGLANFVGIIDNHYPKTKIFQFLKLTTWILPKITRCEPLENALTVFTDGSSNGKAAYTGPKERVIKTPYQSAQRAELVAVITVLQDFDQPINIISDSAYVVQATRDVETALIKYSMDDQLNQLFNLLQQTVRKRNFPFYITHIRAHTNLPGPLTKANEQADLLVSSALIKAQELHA
T2 sequence (O14746 whole entry): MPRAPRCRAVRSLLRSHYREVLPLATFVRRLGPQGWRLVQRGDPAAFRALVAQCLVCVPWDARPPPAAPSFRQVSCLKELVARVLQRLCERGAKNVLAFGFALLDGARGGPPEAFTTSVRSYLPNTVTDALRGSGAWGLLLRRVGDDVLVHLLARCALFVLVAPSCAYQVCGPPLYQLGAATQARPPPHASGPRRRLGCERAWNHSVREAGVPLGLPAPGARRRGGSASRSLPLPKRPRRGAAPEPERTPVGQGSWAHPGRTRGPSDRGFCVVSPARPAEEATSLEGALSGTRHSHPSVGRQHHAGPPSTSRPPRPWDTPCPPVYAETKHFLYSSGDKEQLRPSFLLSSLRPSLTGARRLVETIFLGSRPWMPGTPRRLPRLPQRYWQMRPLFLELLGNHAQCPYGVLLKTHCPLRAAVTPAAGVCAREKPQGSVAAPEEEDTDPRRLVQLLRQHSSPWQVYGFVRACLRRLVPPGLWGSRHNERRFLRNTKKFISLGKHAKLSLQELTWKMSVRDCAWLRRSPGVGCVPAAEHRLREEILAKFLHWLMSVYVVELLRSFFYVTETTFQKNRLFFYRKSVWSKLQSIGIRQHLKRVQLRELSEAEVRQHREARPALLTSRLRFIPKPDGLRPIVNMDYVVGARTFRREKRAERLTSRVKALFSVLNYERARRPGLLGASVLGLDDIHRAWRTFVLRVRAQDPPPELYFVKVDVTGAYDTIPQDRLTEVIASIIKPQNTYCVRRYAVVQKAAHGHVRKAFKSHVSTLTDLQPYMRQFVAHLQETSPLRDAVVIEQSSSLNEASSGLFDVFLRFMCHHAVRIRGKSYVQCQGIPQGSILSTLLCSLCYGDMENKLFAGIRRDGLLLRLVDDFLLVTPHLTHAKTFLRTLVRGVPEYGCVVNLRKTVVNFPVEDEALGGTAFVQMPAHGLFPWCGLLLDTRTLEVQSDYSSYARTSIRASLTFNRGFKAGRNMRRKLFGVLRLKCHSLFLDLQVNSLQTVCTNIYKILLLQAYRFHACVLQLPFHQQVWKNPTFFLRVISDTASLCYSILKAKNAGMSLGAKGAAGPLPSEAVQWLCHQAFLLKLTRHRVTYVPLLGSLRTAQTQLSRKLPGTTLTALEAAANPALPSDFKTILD
T2 sequence (O60832 whole entry partner): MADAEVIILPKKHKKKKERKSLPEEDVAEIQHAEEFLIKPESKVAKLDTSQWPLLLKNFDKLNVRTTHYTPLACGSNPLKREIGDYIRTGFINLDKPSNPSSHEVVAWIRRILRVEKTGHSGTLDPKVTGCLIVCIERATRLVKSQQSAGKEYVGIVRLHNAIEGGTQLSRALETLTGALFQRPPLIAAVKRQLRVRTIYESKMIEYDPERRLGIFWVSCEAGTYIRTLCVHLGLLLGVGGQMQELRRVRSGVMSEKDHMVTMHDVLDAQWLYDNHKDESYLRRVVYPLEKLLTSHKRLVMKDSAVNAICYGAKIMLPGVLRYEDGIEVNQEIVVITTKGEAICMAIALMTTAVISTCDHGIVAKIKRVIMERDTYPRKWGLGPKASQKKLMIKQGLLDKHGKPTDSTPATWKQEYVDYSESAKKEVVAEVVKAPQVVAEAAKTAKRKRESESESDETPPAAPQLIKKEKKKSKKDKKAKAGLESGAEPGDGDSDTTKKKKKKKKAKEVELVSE
T2 sequence (Q9NX24 whole entry partner): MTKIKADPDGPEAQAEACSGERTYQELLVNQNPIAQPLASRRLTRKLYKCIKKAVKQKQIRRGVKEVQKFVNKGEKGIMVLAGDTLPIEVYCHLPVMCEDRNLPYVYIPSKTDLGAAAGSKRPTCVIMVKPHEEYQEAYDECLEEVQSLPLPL
T2 sequence (Q9NPE3 whole entry partner): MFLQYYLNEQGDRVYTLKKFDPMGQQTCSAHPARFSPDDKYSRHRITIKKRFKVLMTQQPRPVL
T2 sequence (Q9NY12 whole entry partner): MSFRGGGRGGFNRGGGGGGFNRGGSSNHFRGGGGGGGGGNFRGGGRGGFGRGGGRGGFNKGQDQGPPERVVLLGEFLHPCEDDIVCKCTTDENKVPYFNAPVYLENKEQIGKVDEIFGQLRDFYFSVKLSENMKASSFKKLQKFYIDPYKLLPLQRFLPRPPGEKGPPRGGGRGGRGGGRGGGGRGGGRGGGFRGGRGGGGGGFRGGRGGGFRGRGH

Structure (SMILES) | IC50 [1] [µM] | IC50 (human telomerase) [µM]
Nc1ccn([C@H]2C[C@H](O)[C@@](CCl)(COP(=O)(O)OP(=O)(O)OP(=O)(O)O)O2)c(=O)n1 [Compound 2-TP] | 17 | ≤ 1
Nc1nc(=O)n([C@@H]2O[C@](CCl)(COP(=O)(O)OP(=O)(O)OP(=O)(O)O)[C@@H](O)[C@@H]2F)cc1F [Compound 67-TP] | > 10 | > 100
CC[C@]1(COP(=O)(O)OP(=O)(O)OP(=O)(O)O)O[C@@H](n2ccc(N)nc2=O)C[C@@H]1O [44-TP] | > 10 | 25 to 50
Nc1ccn([C@@H]2O[C@](CCl)(COP(=O)(O)OP(=O)(O)OP(=O)(O)O)[C@@H](O)[C@@H]2F)c(=O)n1 [Compound 40-TP] | > 10 | > 100
Nc1nc(=O)n([C@H]2C[C@H](O)[C@@](CCl)(COP(=O)(O)OP(=O)(O)OP(=O)(O)O)O2)cc1F [Compound 14-TP, ((2R,3S,5R)-5-(4-amino-5-fluoro-2-oxopyrimidin-1(2H)-yl)-2-(chloromethyl)-3-hydroxytetrahydrofuran-2-yl)methyl tetrahydrogen triphosphate TEA Salt] | > 10 | ≤ 1

These reach a lower IC50 [1]. Values come first.

IC50 [1] [µM] | IC50 (human telomerase) [µM] | Structure (SMILES)
0.013 | > 100 | C#C[C@]1(COP(=O)(O)OP(=O)(O)OP(=O)(O)O)O[C@@H](n2ccc(N)nc2=O)[C@@H](F)[C@@H]1O [Compound 35-TP]
4.01 | 1 to 25 | C=C[C@]1(COP(=O)(O)OP(=O)(O)OP(=O)(O)O)O[C@@H](n2ccc(N)nc2=O)C[C@@H]1O [Compound 43-TP]
